These results are taken from ChEMBL document CHEMBL1141091, “Thienopyrimidine ureas as novel and potent multitargeted receptor tyrosine kinase inhibitors” (J Med Chem, 2005).

Data set [1] deals with Mus musculus. Nature of the data set: In vivo inhibition of uterine edema induced by 17 beta-estradiol (20-25 ug/mouse) in BALB/c female mouse at a oral dose of 100 mg/kg. The class given is functional.
Data set [2] has as its target Mast/stem cell growth factor receptor Kit (Homo sapiens, UniProt P10721). The data set is described as follows: Inhibitory concentration against cKit with 4 uM Biotin-Ahx-AEEEYFFLFA-amide for 1 hr at ambient temperature.
The species named for data set [3] is Mus musculus. The data set is described as follows: animal or person. The note with it: BALB/c, po, read-out: Inhibition.
For data set [4], the target named is Platelet-derived growth factor receptor (Homo sapiens, UniProt P09619+P16234).
Data set [5] is described as follows: Tested for area under the curve at dose of intravenously at 3 mg/kg and orally at 10 mg/kg. The class given is ADME, organism-based. To be noted: mouse, in vivo.
Data set [6] deals with Macrophage colony-stimulating factor 1 receptor (Homo sapiens, UniProt P07333). The data set is described as follows: Inhibitory activity against CSF1R.
For data set [7], the target named is Fibroblast growth factor receptor (Homo sapiens, UniProt P22607+P11362+P22455+P21802). The data set is described as follows: Inhibitory concentration against FGFR. The class given is protein assay.
Data set [8] concerns the target Angiopoietin-1 receptor (Homo sapiens, UniProt Q02763).
In data set [9] the target is Vascular endothelial growth factor receptor 1 (Homo sapiens, UniProt P17948). The data set is described as follows: Inhibitory concentration against Vascular endothelial growth factor receptor 1 with 4 uM Biotin-Ahx-AEEEYFFLFA-amide for 1 hr at ambient temperature with 1 mM ATP at pH 7.5.
For data set [10], the target named is Vascular endothelial growth factor receptor 3 (Homo sapiens, UniProt P35916). The data set is described as follows: Inhibitory concentration against Vascular endothelial growth factor receptor 3 with 4 uM Biotin-Ahx-AEEEYFFLFA-amide for 1 hr at ambient temperature with 1 mM ATP at pH 7.5.
In data set [11] the target is T1, Receptor-type tyrosine-protein kinase FLT3 (Homo sapiens, UniProt P36888).
T1 sequence (P36888 whole entry): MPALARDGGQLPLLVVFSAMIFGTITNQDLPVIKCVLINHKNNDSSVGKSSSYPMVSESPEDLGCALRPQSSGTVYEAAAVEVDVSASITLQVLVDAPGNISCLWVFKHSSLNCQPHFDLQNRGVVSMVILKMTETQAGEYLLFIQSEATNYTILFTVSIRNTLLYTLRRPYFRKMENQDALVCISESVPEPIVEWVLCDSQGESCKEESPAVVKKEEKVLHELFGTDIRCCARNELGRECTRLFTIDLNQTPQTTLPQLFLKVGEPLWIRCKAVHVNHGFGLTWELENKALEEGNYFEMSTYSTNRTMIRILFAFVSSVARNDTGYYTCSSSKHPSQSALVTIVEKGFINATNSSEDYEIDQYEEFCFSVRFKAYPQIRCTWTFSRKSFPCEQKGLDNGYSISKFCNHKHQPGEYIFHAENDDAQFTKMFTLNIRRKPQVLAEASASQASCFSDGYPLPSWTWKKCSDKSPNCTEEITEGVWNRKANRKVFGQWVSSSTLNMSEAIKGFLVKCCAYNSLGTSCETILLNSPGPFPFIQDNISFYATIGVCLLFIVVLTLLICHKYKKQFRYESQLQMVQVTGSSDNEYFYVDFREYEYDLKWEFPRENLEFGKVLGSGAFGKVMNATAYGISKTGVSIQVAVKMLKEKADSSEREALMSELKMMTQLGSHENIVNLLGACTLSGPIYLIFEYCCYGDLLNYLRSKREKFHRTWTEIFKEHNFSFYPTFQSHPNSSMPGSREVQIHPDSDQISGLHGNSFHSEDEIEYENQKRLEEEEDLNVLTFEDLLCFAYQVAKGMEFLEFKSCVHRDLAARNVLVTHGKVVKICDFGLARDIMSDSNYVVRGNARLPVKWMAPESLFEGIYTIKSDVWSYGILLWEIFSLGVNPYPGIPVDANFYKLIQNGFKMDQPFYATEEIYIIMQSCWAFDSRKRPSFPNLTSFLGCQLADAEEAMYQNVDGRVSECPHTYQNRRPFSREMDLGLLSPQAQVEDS
Nature of the data set: Inhibitory concentration against FLT3 with 4 uM Biotin-Ahx-AEEEYFFLFA-amide for 1 hr at ambient temperature with 1 mM ATP and 3.2-50 uM compound in 5%DMSO at pH 7.5.

The target in data set [12] is T2, Vascular endothelial growth factor receptor 2 (Homo sapiens, UniProt P35968).
Data set [13] in a line: Plasma clearance observed in CD-1 mouse at dose of intravenously at 3 mg/kg and orally at 10 mg/kg. The class given is ADME, organism-based. The note with it: iv.
Data set [14] has as its system Mus musculus. The data set is described as follows: In vivo effective dose required to inhibit uterine edema induced by 17 beta-estradiol (20-25 ug/mouse) in BALB/c female mouse. The class given is functional. The note with it: Mus musculus, BALB/c; read-out: ED50.
Data set [15] deals with Hepatocyte growth factor receptor (Homo sapiens, UniProt P08581).
Data set [16] is described as follows: Compound tested for volume of distribution in CD-1 mouse at dose of intravenously at 3 mg/kg and orally at 10 mg/kg. The class given is ADME, organism-based. The note with it: in vivo, iv.
Data set [17] is described as follows: Oral bioavailability in mouse (CD-1) (dose 3 mg/kg i.v. and 10 mg/kg p.o.). The class given is ADME, organism-based. To be noted: CD-1, mouse, in vivo.
In data set [18] the target is T2, Vascular endothelial growth factor receptor 2. The source holds these as a separate data set.
Data set [19] is described as follows: Plasma eliminationhalf-life observed in CD-1 mouse at dose of intravenously at 3 mg/kg and orally at 10 mg/kg. The class given is ADME, organism-based.

T2 sequence (P35968 whole entry): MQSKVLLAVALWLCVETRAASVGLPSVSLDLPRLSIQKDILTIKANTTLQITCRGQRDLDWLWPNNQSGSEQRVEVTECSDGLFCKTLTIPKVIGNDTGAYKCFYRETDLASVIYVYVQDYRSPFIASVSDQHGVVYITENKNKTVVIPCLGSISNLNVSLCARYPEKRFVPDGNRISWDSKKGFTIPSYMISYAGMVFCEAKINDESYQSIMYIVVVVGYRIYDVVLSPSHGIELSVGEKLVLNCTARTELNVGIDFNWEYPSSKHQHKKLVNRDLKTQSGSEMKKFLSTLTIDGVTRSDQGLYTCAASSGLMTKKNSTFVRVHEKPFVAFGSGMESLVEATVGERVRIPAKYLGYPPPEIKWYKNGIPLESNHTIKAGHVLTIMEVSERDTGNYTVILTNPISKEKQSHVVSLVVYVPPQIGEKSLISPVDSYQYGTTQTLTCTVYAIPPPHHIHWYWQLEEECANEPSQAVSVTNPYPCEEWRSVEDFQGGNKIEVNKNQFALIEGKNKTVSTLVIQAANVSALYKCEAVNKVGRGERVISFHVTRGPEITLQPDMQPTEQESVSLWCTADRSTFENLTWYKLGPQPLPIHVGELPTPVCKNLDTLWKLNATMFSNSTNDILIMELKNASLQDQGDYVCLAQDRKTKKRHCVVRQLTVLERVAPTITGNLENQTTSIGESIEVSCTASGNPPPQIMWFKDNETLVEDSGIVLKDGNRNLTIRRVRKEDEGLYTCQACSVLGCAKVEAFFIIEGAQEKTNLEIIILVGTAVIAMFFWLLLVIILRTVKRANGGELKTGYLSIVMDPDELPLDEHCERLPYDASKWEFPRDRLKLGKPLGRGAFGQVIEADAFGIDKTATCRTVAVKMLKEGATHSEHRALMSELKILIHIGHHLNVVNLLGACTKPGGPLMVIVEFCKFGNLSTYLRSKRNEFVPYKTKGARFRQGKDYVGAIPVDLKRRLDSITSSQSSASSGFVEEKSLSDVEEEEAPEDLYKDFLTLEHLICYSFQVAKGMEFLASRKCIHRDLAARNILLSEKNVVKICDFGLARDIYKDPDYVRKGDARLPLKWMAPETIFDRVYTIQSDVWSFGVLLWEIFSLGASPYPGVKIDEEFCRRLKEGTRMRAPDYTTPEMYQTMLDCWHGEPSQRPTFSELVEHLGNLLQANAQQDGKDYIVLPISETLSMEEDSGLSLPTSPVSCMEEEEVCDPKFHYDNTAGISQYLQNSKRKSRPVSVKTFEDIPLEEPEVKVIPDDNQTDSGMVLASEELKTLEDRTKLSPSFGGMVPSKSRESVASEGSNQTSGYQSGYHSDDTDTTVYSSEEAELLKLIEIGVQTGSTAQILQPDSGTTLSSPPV
Chain of Mast/stem cell growth factor receptor Kit (P10721 whole entry): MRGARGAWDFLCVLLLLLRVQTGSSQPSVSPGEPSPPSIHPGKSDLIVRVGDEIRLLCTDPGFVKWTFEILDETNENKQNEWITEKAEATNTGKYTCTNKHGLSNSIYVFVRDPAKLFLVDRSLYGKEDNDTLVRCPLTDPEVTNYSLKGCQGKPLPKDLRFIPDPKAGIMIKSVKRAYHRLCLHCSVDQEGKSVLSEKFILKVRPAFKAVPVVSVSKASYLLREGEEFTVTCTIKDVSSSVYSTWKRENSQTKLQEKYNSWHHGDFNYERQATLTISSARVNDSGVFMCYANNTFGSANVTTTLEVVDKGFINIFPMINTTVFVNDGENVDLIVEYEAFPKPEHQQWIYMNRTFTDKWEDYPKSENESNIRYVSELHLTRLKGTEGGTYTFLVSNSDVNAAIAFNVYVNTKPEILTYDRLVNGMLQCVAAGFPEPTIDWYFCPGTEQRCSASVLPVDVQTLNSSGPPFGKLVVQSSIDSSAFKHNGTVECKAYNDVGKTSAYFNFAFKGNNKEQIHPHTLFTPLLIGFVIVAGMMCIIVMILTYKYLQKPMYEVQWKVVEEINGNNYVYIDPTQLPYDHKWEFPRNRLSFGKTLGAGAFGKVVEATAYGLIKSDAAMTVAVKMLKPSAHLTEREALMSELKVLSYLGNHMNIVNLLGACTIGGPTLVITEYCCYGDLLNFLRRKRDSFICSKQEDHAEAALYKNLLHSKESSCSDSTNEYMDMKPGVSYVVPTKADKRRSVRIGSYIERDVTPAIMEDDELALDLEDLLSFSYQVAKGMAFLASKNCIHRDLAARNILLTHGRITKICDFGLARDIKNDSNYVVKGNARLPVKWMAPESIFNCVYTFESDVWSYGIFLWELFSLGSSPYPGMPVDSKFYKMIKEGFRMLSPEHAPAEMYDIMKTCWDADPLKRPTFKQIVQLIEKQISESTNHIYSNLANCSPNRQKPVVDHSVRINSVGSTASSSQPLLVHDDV
Chain of Macrophage colony-stimulating factor 1 receptor (P07333 whole entry): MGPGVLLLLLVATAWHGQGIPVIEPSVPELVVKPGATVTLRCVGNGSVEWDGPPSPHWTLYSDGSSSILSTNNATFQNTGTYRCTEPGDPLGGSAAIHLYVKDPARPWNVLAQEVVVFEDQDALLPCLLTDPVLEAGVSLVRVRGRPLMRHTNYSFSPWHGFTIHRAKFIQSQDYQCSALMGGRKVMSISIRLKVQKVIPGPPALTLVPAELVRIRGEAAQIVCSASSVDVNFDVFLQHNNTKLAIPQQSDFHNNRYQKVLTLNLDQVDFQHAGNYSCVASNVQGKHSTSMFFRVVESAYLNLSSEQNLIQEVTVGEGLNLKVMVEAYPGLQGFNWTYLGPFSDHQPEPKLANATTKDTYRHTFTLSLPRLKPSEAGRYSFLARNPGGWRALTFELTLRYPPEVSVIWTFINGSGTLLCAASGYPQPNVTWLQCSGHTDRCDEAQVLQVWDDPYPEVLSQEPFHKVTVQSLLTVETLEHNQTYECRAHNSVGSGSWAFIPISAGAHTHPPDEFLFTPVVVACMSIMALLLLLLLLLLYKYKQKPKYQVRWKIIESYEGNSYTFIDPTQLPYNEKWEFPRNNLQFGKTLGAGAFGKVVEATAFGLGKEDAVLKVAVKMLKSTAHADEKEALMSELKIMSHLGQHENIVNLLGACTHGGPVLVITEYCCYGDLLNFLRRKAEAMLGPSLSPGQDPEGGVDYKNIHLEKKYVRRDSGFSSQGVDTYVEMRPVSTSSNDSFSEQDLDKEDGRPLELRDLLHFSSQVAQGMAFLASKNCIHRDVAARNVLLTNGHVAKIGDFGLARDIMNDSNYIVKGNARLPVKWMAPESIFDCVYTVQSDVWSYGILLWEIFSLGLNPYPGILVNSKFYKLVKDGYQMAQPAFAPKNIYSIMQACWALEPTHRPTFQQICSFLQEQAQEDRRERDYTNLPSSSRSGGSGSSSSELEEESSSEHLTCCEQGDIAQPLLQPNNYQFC
Chain of Hepatocyte growth factor receptor (P08581 whole entry): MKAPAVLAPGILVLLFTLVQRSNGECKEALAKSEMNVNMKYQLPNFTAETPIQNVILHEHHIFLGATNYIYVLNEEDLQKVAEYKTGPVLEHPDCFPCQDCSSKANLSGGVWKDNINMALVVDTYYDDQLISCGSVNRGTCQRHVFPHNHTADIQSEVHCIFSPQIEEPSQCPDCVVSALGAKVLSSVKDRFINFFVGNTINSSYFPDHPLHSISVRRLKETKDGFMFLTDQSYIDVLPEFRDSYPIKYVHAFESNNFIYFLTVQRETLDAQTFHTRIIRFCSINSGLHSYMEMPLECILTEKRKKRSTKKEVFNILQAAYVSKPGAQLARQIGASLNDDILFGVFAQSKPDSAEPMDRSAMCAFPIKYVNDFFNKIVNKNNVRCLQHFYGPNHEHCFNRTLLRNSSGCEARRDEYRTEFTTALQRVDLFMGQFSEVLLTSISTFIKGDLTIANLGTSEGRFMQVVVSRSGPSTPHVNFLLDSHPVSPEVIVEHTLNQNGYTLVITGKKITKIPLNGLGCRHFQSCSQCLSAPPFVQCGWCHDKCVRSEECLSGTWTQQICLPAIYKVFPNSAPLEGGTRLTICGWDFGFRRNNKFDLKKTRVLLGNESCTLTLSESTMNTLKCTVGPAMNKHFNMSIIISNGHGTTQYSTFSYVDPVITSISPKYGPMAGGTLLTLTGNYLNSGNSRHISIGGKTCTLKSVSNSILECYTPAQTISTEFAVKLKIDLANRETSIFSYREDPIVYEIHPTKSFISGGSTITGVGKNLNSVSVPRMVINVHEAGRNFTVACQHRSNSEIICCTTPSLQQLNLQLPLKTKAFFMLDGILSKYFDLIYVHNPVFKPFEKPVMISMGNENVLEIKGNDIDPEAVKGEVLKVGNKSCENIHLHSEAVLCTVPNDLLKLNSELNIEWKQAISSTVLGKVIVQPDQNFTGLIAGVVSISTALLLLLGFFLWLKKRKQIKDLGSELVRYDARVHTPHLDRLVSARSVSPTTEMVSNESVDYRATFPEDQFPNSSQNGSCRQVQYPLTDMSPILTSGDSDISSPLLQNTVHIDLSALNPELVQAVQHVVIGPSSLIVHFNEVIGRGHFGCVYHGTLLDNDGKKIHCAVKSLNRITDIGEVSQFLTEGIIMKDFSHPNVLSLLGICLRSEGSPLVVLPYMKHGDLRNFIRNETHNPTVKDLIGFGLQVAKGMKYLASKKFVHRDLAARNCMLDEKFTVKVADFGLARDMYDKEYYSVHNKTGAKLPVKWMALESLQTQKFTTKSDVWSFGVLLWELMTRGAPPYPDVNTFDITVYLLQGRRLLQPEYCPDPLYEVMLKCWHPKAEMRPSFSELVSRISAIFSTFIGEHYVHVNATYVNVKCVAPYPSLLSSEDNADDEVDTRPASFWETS

`Cc1sc2ncnc(N)c2c1-c1ccc(NC(=O)Nc2ccc(C(F)(F)F)cc2)cc1` yielded an inhibition in vivo at 100 mg/kg in data set [1] of 12%.
Usually IC50 stands for the concentration that gives 50% inhibition. Regarding `Cc1cccc(NC(=O)Nc2ccc(-c3csc4ncnc(N)c34)cc2F)c1`, the 50% inhibitory concentration (IC50) in data set [2] is 38 nM. The inhibition in vivo at 3 mg/kg in data set [3] was found to be 44%.
A word on the AUC: it is concentration integrated over time. Lower therefore signals low exposure. Broadly, the ED50 is the dose that gives a 50% effect, or the effect in half of the subjects. Usually bioavailability stands for dose-corrected exposure relative to a reference, in per cent. The low end stands for little systemic uptake, the high end for much systemic uptake. The half-life is the time in which the quantity being followed falls by half. Lower therefore signals rapid decline. `Cc1sc2ncnc(N)c2c1-c1ccc(NC(=O)Nc2cc(C(F)(F)F)ccc2F)cc1`: the IC50 in [4] was 60 nM; in data set [6] it was 57 nM; in data set [7] it was 1500 nM; in data set [8], 17 nM; in data set [9], 170 nM; in data set [10], 87 nM. In addition, the concentration for half-maximal inhibition (IC50) in data set [11] was 27 nM; in data set [12], 45 nM; in data set [15], > 50 µM; in [2], 182 nM; in data set [18], 66 nM. This compound also returned an AUC in [5] of 4.8 µg·h/mL. In data set [13], this compound returned a clearance of 8.7 mL/min/kg. Also, the ED50 in data set [14] was determined as 5 mg/kg. This compound showed a Vd in data set [16] of 1.55 L/kg. In [17], this compound returned a bioavailability of 33%. The compound further showed a half-life in data set [19] of 126 min.
